Molecules are shown by their SMILES.

The data set is described as follows: gradient 5% acetonitrile 3 min, to 50% in 2 min, to 85% in 15 min, held 3 min, 100 µL/min. The note with it: column: Zorbax Extend-C18 2.1 x 50 mm; eluents: water / acetonitrile, 0.1% formic acid. The method in brief:
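Retention time was recorded from adduct peaks, which were picked computationally and each inspected manually. Pure standards ran in mixtures of ~100 molecules on HPLC coupled to a quadrupole time-of-flight mass spectrometer, in positive and negative ionization mode, through a Zorbax Extend-C18 column (2.1 × 50 mm, 1.8 μm) at 100 μL/min. Eluents were water and acetonitrile, each with 0.1% formic acid.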
The compound `CCc1nc2cc(-c3noc(-c4ccccc4C)n3)ccc2o1` displayed an RP-LC retention time of 1280 s.
On to `NC(=O)C1CCN(C(=O)c2c[nH]c3c(C(F)(F)F)cccc3c2=O)CC1`, for which the RP-LC retention time was found to be 572 s.
As for `CCn1ccc2sc(C)c(C(=O)NCCC(C)C)c2c1=O`, the figure is 806 s; as for `O=c1c2cc(-c3ccc(F)cc3)nn2cnn1Cc1nc(-c2ccc3c(c2)OCO3)no1`, 1220 s; as for `CCc1ccc(CNC(=O)C2Cc3cc(S(=O)(=O)N(CC)CC)ccc3N2C(C)=O)cc1` (centres undefined), 617 s.
As for `CCc1ccc(C2=C(C)C(N3CCCN(C(=O)c4ccco4)CC3)=NS2(=O)=O)cc1`, the figure is 838 s; as for `Cc1ccc(C)c(N2CCN(C(=O)c3[nH]c(C)c(S(=O)(=O)N4CCOCC4)c3C)CC2)c1`, 928 s.
As to `O=C1c2ccccc2C(=O)c2c(O)c(NCCNCCO)cc(O)c21`, the RP-LC retention time was 653 s.
`Cc1ccc(-c2nc(-c3cccc(-c4ccn[nH]4)c3)no2)cc1C` registered an RP-LC retention time of 1150 s.
Compound `CCN1c2ccccc2C(=O)NC12CCN(C(=O)Cc1ccccc1C)CC2` came in with an RP-LC retention time of 849 s.
`CCn1cc(CCNC(=O)Nc2cc(C)ccc2C)c2cccnc21`: the RP-LC retention time stood at 723 s.
Then `CCOc1cccc(CN2C[C@@H]3C(=O)N(CCOC)C(=O)[C@@H]3C2)c1`, with 578 s; and `O=C(NCc1ccc(F)cc1)C1CCCN(c2nc3ccccc3n(Cc3ccccc3)c2=O)C1` (centres undefined), with 1140 s; and `CCCN1C(=O)c2ccccc2Sc2cc(-c3noc(CNC(=O)c4ccco4)n3)ccc21`, with 911 s.
Then `CCc1ccc(NC(=O)N2CC(c3nc(C)no3)C3(CCOCC3)C2)cc1` (centres undefined), with 770 s; and `COc1ccc(-c2ccc(=O)n(Cc3nc(-c4ccc(C)cc4)no3)n2)cc1OC`, with 925 s.
Then `COc1ccc(-c2csc(NC(=O)C3(c4ccccc4)CCCC3)n2)cc1OC`, with 1170 s.
Compound `Cc1ccccc1NC(=O)C1C(=O)N(C)C2(C)CC1c1ccccc1O2` (centres undefined) registered an RP-LC retention time of 991 s.
As for `CCSc1nnc(-c2nn(C)c3c2CN(C(=O)c2cccc(Cl)c2)CC3)n1C`, the figure is 788 s; as for `COc1ccccc1-c1nc(C2CCN(C(=O)c3cc4ccccc4[nH]3)CC2)no1`, 930 s.
As for `C=CCc1c(C)c(C#N)c2nc3ccccc3n2c1NCCOCCO`, the figure is 589 s.
Then `O=S(=O)(CCOc1ccccc1)N1CCN(c2ccccc2F)CC1`, with 1010 s; and `COc1ccc(-n2c(=O)n(C)c(=O)c3cc(C(=O)Nc4cc(F)cc(F)c4)cnc32)cc1`, with 970 s; and `COCC(=O)Nc1nc(-c2ccc3c(c2)N(C)C(=O)C(C)O3)cs1` (centres undefined), with 770 s.
As to `CCOC(=O)c1c(C)oc2nc(C)nc(NCCCN(CC)c3ccccc3)c12`, the RP-LC retention time was 825 s.
With `Cc1cc2nn(CC(=O)Nc3ccc(F)cc3F)c(=O)n2c(Nc2ccc(C)c(F)c2)n1`, the RP-LC retention time stood at 1080 s.
As to `COCCN1C(=O)CCc2c(C)nc(-c3cccnc3)nc21`, the RP-LC retention time stood at 614 s.
As for `Nc1nc(SCc2ccccc2Cl)c2ncn(C3OC(CO)C(O)C3O)c2n1` (centres undefined), the figure is 672 s; as for `CN(CCNC(=O)CCC(=O)N1CCc2c(c(C(=O)N3CCCC3)nn2C)C1)C1CCCCC1`, 590 s; as for `CCOCCCNCc1ccc(-c2cc(Cl)ccc2Cl)o1`, 753 s.
As for `O=C(CCC1CCCN(S(=O)(=O)c2ccccc2)C1)NCc1ccc(Cl)cc1` (centres undefined), the figure is 979 s; as for `CCCN1CCn2cc(S(=O)(=O)Nc3ccccc3F)cc2C1=O`, 718 s.
As for `C[C@](O)(COc1ccc(C#N)cc1)C(=O)Nc1ccc(C#N)c(C(F)(F)F)c1`, the figure is 972 s; as for `Cc1ccc(CN2CCC(CNC(=O)CSc3nc4ccccc4n(C)c3=O)C2)cc1` (centres undefined), 634 s.
For `Cc1cc(NC(=O)Cn2cnc3nc4c(cc3c2=O)CCCC4)ccc1Br`, the RP-LC retention time was found to be 851 s.
Then `O=C(NCc1cccnc1)C1(c2ccc(F)cc2)CC1`, with 568 s; and `Cc1cc(OCC(=O)Nc2ccc(C)c(C)c2)nc(N2CCN(c3ccccc3)CC2)n1`, with 911 s; and `O=C(Cn1nc2c3cc(Cl)ccc3ncn2c1=O)Nc1cccc(Cl)c1`, with 730 s.
The compound `O=C(Nc1ccc(F)cc1F)Nc1c(-c2ccccc2)nc2ccccn12` had an RP-LC retention time of 660 s.
The compound `O=C(COc1ccccc1)N1CCc2nc(-c3ccc(Cl)cc3)ncc2C1` yielded an RP-LC retention time of 848 s.
As for `Cc1ccc(Cl)cc1NC(=O)CN1CCN(c2ccc(F)cc2)CC1`, the figure is 658 s.
`Cc1cnc(C(=O)NC2C[C@H]3CC[C@@H](C2)N3C(=O)CCC2CCCCC2)cn1` (some centres undefined): the RP-LC retention time is 821 s.
As for `CCCOc1nccnc1N1CCC(N(C)C(=O)c2ccc(C)nc2)C1` (centres undefined), the figure is 657 s; as for `CC(C)NC(=O)c1ccc2c(c1)CCN2C(=O)C(C)C`, 733 s.
With `Cn1c(C(=O)NCCCN2CCN(C3CCCCC3)CC2)cc2sccc21`, the RP-LC retention time came to 547 s.
Then `Cc1nnc(C2CC3(CCN(Cc4ccccc4)CC3)CN2Cc2ccccc2)o1` (centres undefined), with 636 s.
`Cn1c(=O)oc2cc(-c3noc(-c4cccc5[nH]ccc45)n3)ccc21` gave an RP-LC retention time of 932 s.
As for `CCc1cccc(C)c1Nc1c(-c2ccc(F)cc2)nc2nc(C)cc(C)n12`, the figure is 828 s.
Consider `CCCNC(=O)C1CCCN(c2nc3ncn(CC(=O)Nc4ccc5c(c4)OCO5)c(=O)c3s2)C1` (centres undefined), for which the RP-LC retention time amounted to 640 s.
`Cc1cc(C)cc(NC(=O)N2CC(n3cnnc3-c3ccccc3)C2)c1` yielded an RP-LC retention time of 722 s.
For the compound `COC(=O)c1ccc(Cl)cc1NC(=O)N1CCCn2nc(-c3cccs3)cc2C1`, the RP-LC retention time is 1120 s.
Regarding `Cc1nc(-c2cc(S(=O)(=O)N3CCC(C(=O)NCCN4CCCCCC4)CC3)c(C)s2)no1`, the RP-LC retention time turned out to be 666 s.
Then `CCc1ccc(NC(=O)N2CCN(Cc3ccc4nccnc4c3)CC2)cc1`, with 626 s.
As for `Cn1c(=O)n(C)c2cc(S(=O)(=O)C3CCCCC3)c(NC(=O)c3c(F)cccc3F)cc21`, the figure is 914 s; as for `CCn1ccc2cc(S(=O)(=O)N3CCC(C(=O)NCC4CCCO4)CC3)ccc21` (centres undefined), 771 s; as for `O=C(Nc1cccnc1)c1ccccc1OCc1ccc(S(=O)(=O)N2CCOCC2)o1`, 594 s.
Consider `O=C(NCC1(CO)CC1)c1ccccc1F`, for which the RP-LC retention time is 599 s.
As for `CNC(=O)c1c(NC(=O)COc2ccc(Cl)cc2)sc2c1CCC2`, the figure is 1100 s.
Take `Cc1ccc(-c2noc(-c3cccc(S(=O)(=O)Nc4ccccn4)c3)n2)cc1`: the RP-LC retention time turned out to be 935 s.
Then `Cc1ccc(NS(=O)(=O)c2cc(-c3[nH]ncc3C(=O)N3CCCC3)oc2C)cc1`, with 715 s; and `Cc1ccc(S(=O)(=O)Nc2nc3ccccc3nc2Nc2ccc3nsnc3c2)cc1`, with 1220 s; and `COc1ccc(-c2nnc(-c3cccc(S(=O)(=O)N(C)C)c3)o2)cc1OC`, with 816 s.
As to `CCOC(=O)C1CCCN(CC(=O)Nc2nc(-c3ccccc3)cs2)C1` (centres undefined), the RP-LC retention time turned out to be 690 s.
In turn, `CCN1C(=O)COc2ccc(-c3csc(NC(=O)c4ccccc4Br)n3)cc21` returned an RP-LC retention time of 980 s.
As to `O=C(NCCSc1ncc(-c2ccc(F)cc2)[nH]1)c1ccccc1Cl`, the RP-LC retention time was 604 s.
Then `Cn1nc(-c2nc(C3CC3)no2)c2c1CCN(C(=O)c1ccc(C(F)(F)F)s1)C2`, with 970 s; and `CCOc1ccc(NC(=O)c2cc(=O)c3cc(Cl)ccc3o2)c2cccnc12`, with 665 s; and `COc1ccc(C2(c3nc(CCS(=O)(=O)c4ccccc4)no3)CC2)cc1`, with 959 s.
As for `CCn1cc(C(=O)Nc2cccc(Br)c2)c2nn(-c3ccccc3)c(=O)c-2c1`, the figure is 1090 s; as for `CCOc1ccccc1C(=O)N1CCCCC1c1nncn1CC1CC1` (centres undefined), 746 s.
As for `CCOc1cc(-c2ccccc2)nc2ccc(NC(=O)c3cccs3)cc12`, the RP-LC retention time is 754 s.
As for `CC1CCN(C(=O)C2=NN(Cc3cccc(F)c3)c3ccccc3S2(=O)=O)CC1`, the figure is 1010 s; as for `Cc1c(C(=O)NCCN2CCCCCC2)sc2ncnc(N3CCN(C)CC3)c12`, 551 s.
Then `O=C(O)c1cccc2c1CCN2C(=O)c1ccc(F)cc1`, with 761 s; and `COc1ccccc1-c1cnn2c(Nc3ccc(NC(C)=O)cc3)cc(C)nc12`, with 593 s.
As for `COc1ccccc1CCc1nc(-c2ccc3oc(C)nc3c2)no1`, the figure is 1210 s; as for `CCCn1c(=O)sc2cc(S(=O)(=O)N3CCC(C(=O)Nc4cc(C)ccn4)CC3)ccc21`, 844 s; as for `COc1cccc(OC)c1C(=O)Nc1ccc2c(c1)Sc1ncccc1C(=O)N2C(C)C`, 883 s.
As for `CCOC(=O)Nc1ccc2c(c1)N(CCC(C)C)C(=O)C(C)(C)CO2`, the RP-LC retention time was determined as 1070 s.

These data come from the METLIN SMRT retention time set (Domingo-Almenara et al. 2019).
